How the values were obtained:
Cbl-b = Cbl-b (Homo sapiens (Human), UniProt Q13191); assay: Cbl-b LCK Ub TR-FRET assay (Cbl-b Lck HTRF); format: biochemical
In short: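 Biotin-Cbl-b preincubated with compound (10-point 3-fold series) 60 min, then His-LCK with 1 mM ATP (2× mixture) added for 90 min at room temperature. Ubiquitination detected by TR-FRET using HA-ubiquitin/UBE2D2 adduct, anti-HA-D2 and streptavidin-Eu; IC50 normalised to no-LCK and DMSO controls.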

c-Cbl = c-Cbl (Homo sapiens (Human), UniProt P22681); assay: C-Cbl LCK Ub TR-FRET assay (c-cbl Lck HTRF); format: biochemical; conditions: for (fold-selectivity): C-cbl Lck HTRF IC50 relative to Cbl-b Lck HTRF IC50
Chain of c-Cbl (P22681 47-435): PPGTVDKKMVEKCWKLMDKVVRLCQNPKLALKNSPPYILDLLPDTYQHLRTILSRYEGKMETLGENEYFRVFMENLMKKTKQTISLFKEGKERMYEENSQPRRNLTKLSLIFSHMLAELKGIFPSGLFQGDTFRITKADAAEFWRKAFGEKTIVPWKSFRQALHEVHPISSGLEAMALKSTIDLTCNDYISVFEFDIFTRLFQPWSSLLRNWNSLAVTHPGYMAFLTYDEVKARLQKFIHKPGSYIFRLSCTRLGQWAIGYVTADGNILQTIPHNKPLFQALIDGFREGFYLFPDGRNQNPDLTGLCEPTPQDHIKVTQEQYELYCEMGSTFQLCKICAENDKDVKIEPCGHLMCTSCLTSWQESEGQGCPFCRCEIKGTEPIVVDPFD
In short: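 Signal is read once the detection mix has stood 20 min at ambient temperature. Curves are anchored by DMSO as maximum and by omission of LCK as minimum.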

Chain of Cbl-b (Q13191 40-426): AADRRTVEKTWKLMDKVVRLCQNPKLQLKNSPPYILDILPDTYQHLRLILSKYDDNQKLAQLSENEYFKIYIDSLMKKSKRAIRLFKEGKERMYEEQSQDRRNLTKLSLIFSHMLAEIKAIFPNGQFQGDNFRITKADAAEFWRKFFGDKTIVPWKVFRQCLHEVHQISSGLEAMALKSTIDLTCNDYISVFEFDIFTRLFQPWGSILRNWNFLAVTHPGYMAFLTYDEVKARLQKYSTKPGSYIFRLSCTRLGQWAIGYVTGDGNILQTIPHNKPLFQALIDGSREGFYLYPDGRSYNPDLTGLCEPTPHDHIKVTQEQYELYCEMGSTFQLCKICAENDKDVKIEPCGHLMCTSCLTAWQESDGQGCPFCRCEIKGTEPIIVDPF

| IC50 (Cbl-b) [nM] | IC50 (c-Cbl) [nM] | (fold-selectivity) (c-Cbl) [x] | Compound |
| --- | --- | --- | --- |
| 96 | 180 | 1.9 | COCC1(F)CN(Cc2cc3c(c(C(F)(F)F)c2)CN(c2cccc(C4([C@@H](F)c5nncn5C)COC4)c2)C3=O)C1 [Compound 135, (R)-2-(3-(3-(fluoro(4-methyl-4H-1,2,4-triazol-3-yl)methyl)oxetan-3-yl)phenyl)-6-((3-fluoro-3-(methoxymethyl)azetidin-1-yl)methyl)-4-(trifluoromethyl)isoindolin-1-one] |
| 280 | 560 | 2.0 | COCC1(F)CN(Cc2cc3c(c(C(F)(F)F)c2)CN(c2cccc(C4([C@H](F)c5nncn5C)COC4)c2)C3=O)C1 [Compound 136, (S)-2-(3-(3-(fluoro(4-methyl-4H-1,2,4-triazol-3-yl)methyl)oxetan-3-yl)phenyl)-6-((3-fluoro-3-(methoxymethyl)azetidin-1-yl)methyl)-4-(trifluoromethyl)isoindolin-1-one] |
| 29 | 57 | 1.9 | Cn1cnnc1[C@H](F)C1(c2cccc(N3Cc4c(cc(CN5CC(C(F)F)C5)cc4C(F)(F)F)C3=O)c2)COC1 [Compound 137, (R)-6-((3-(difluoromethyl)azetidin-1-yl)methyl)-2-(3-(3-(fluoro(4-methyl-4H-1,2,4-triazol-3-yl)methyl)oxetan-3-yl)phenyl)-4-(trifluoromethyl)isoindolin-1-one] |
| 98 | 180 | 1.8 | Cn1cnnc1[C@@H](F)C1(c2cccc(N3Cc4c(cc(CN5CC(C(F)F)C5)cc4C(F)(F)F)C3=O)c2)COC1 [Compound 138, (S)-6-((3-(difluoromethyl)azetidin-1-yl)methyl)-2-(3-(3-(fluoro(4-methyl-4H-1,2,4-triazol-3-yl)methyl)oxetan-3-yl)phenyl)-4-(trifluoromethyl)isoindolin-1-one] |
| 230 | 640 | 2.8 | Cn1cnnc1[C@H](F)C1(c2cccc(N3Cc4c(cc(CN5CC6(CCO6)C5)cc4C(F)(F)F)C3=O)c2)COC1 [Compound 139, (R)-6-(1-oxa-6-azaspiro[3.3]heptan-6-ylmethyl)-2-(3-(3-(fluoro(4-methyl-4H-1,2,4-triazol-3-yl)methyl)oxetan-3-yl)phenyl)-4-(trifluoromethyl)isoindolin-1-one] |
| 380 | 970 | 2.8 | Cn1cnnc1[C@@H](F)C1(c2cccc(N3Cc4c(cc(CN5CC6(CCO6)C5)cc4C(F)(F)F)C3=O)c2)COC1 [Compound 140, (S)-6-(1-oxa-6-azaspiro[3.3]heptan-6-ylmethyl)-2-(3-(3-(fluoro(4-methyl-4H-1,2,4-triazol-3-yl)methyl)oxetan-3-yl)phenyl)-4-(trifluoromethyl)isoindolin-1-one] |
| 91 | 120 | 1.3 | Cn1cnnc1[C@H](F)C1(c2cccc(N3Cc4c(cc(CN5CCC(C)(O)CC5)cc4C(F)(F)F)C3=O)c2)COC1 [Compound 141, (R)-2-(3-(3-(fluoro(4-methyl-4H-1,2,4-triazol-3-yl)methyl)oxetan-3-yl)phenyl)-6-((4-hydroxy-4-methylpiperidin-1-yl)methyl)-4-(trifluoromethyl)isoindolin-1-one] |
| 230 | 430 | 1.9 | Cn1cnnc1[C@@H](F)C1(c2cccc(N3Cc4c(cc(CN5CCC(C)(O)CC5)cc4C(F)(F)F)C3=O)c2)COC1 [Compound 142, (S)-2-(3-(3-(fluoro(4-methyl-4H-1,2,4-triazol-3-yl)methyl)oxetan-3-yl)phenyl)-6-((4-hydroxy-4-methylpiperidin-1-yl)methyl)-4-(trifluoromethyl)isoindolin-1-one] |
| 29 | 27 | 0.92 | Cn1cnnc1[C@H](F)C1(c2cccc(N3Cc4c(cc(CN5CCC[C@H](CO)C5)cc4C(F)(F)F)C3=O)c2)COC1 [Compound 143, 2-(3-(3-((R)-fluoro(4-methyl-4H-1,2,4-triazol-3-yl)methyl)oxetan-3-yl)phenyl)-6-(((S)-3-(hydroxymethyl)piperidin-1-yl)methyl)-4-(trifluoromethyl)isoindolin-1-one] |
| 72 | 66 | 0.91 | Cn1cnnc1[C@@H](F)C1(c2cccc(N3Cc4c(cc(CN5CCC[C@H](CO)C5)cc4C(F)(F)F)C3=O)c2)COC1 [Compound 144, 2-(3-(3-((S)-fluoro(4-methyl-4H-1,2,4-triazol-3-yl)methyl)oxetan-3-yl)phenyl)-6-(((S)-3-(hydroxymethyl)piperidin-1-yl)methyl)-4-(trifluoromethyl)isoindolin-1-one] |
| 130 | 180 | 1.4 | COCC1CCN(Cc2cc3c(c(C(F)(F)F)c2)CN(c2cccc(C4([C@@H](F)c5nncn5C)COC4)c2)C3=O)CC1 [Compound 145, (R)-2-(3-(3-(fluoro(4-methyl-4H-1,2,4-triazol-3-yl)methyl)oxetan-3-yl)phenyl)-6-((4-(methoxymethyl)piperidin-1-yl)methyl)-4-(trifluoromethyl)isoindolin-1-one] |
| 430 | 480 | 1.1 | COCC1CCN(Cc2cc3c(c(C(F)(F)F)c2)CN(c2cccc(C4([C@H](F)c5nncn5C)COC4)c2)C3=O)CC1 [Compound 146, (S)-2-(3-(3-(fluoro(4-methyl-4H-1,2,4-triazol-3-yl)methyl)oxetan-3-yl)phenyl)-6-((4-(methoxymethyl)piperidin-1-yl)methyl)-4-(trifluoromethyl)isoindolin-1-one] |
| 150 | 190 | 1.3 | Cn1cnnc1[C@H](F)C1(c2cccc(N3Cc4c(cc(CN5CCC[C@@H]5CO)cc4C(F)(F)F)C3=O)c2)COC1 [Compound 147, 2-(3-(3-((R)-fluoro(4-methyl-4H-1,2,4-triazol-3-yl)methyl)oxetan-3-yl)phenyl)-6-(((R)-2-(hydroxymethyl)pyrrolidin-1-yl)methyl)-4-(trifluoromethyl)isoindolin-1-one] |
| 690 | 730 | 1.1 | Cn1cnnc1[C@@H](F)C1(c2cccc(N3Cc4c(cc(CN5CCC[C@@H]5CO)cc4C(F)(F)F)C3=O)c2)COC1 [Compound 148, 2-(3-(3-((S)-fluoro(4-methyl-4H-1,2,4-triazol-3-yl)methyl)oxetan-3-yl)phenyl)-6-(((R)-2-(hydroxymethyl)pyrrolidin-1-yl)methyl)-4-(trifluoromethyl)isoindolin-1-one] |
| 380 | 390 | 1.0 | Cn1cnnc1[C@H](F)C1(c2cccc(N3Cc4c(cc(CN5CCC[C@H]5CO)cc4C(F)(F)F)C3=O)c2)COC1 [Compound 149, 2-(3-(3-((R)-fluoro(4-methyl-4H-1,2,4-triazol-3-yl)methyl)oxetan-3-yl)phenyl)-6-(((S)-2-(hydroxymethyl)pyrrolidin-1-yl)methyl)-4-(trifluoromethyl)isoindolin-1-one] |
| 1400 | 1500 | 1.1 | Cn1cnnc1[C@@H](F)C1(c2cccc(N3Cc4c(cc(CN5CCC[C@H]5CO)cc4C(F)(F)F)C3=O)c2)COC1 [Compound 150, 2-(3-(3-((S)-fluoro(4-methyl-4H-1,2,4-triazol-3-yl)methyl)oxetan-3-yl)phenyl)-6-(((S)-2-(hydroxymethyl)pyrrolidin-1-yl)methyl)-4-(trifluoromethyl)isoindolin-1-one] |
| 61 | 85 | 1.4 | Cn1cnnc1[C@H](F)C1(c2cccc(N3Cc4c(cc(CN5CCC[C@@H](CO)C5)cc4C(F)(F)F)C3=O)c2)COC1 [Compound 151, 2-(3-(3-((R)-fluoro(4-methyl-4H-1,2,4-triazol-3-yl)methyl)oxetan-3-yl)phenyl)-6-(((R)-3-(hydroxymethyl)piperidin-1-yl)methyl)-4-(trifluoromethyl)isoindolin-1-one] |
| 220 | 280 | 1.3 | Cn1cnnc1[C@@H](F)C1(c2cccc(N3Cc4c(cc(CN5CCC[C@@H](CO)C5)cc4C(F)(F)F)C3=O)c2)COC1 [Compound 152, 2-(3-(3-((S)-fluoro(4-methyl-4R-1,2,4-triazol-3-yl)methyl)oxetan-3-yl)phenyl)-6-(((R)-3-(hydroxymethyl)piperidin-1-yl)methyl)-4-(trifluoromethyl)isoindolin-1-one] |
| 27 | 60 | 2.2 | Cn1cnnc1[C@H](F)C1(c2cccc(N3Cc4c(cc(CN5CC6(C5)CC6(F)F)cc4C(F)(F)F)C3=O)c2)COC1 [Compound 153, (R)-6-((1,1-difluoro-5-azaspiro[2.3]hexan-5-yl)methyl)-2-(3-(3-(fluoro(4-methyl-4H-1,2,4-triazol-3-yl)methyl)oxetan-3-yl)phenyl)-4-(trifluoromethyl)isoindolin-1-one] |
| 72 | 230 | 3.2 | Cn1cnnc1[C@@H](F)C1(c2cccc(N3Cc4c(cc(CN5CC6(C5)CC6(F)F)cc4C(F)(F)F)C3=O)c2)COC1 [Compound 154, (S)-6-((1,1-difluoro-5-azaspiro[2.3]hexan-5-yl)methyl)-2-(3-(3-(fluoro(4-methyl-4H-1,2,4-triazol-3-yl)methyl)oxetan-3-yl)phenyl)-4-(trifluoromethyl)isoindolin-1-one] |
| 130 | 240 | 1.8 | COC[C@H]1CCCN1Cc1cc2c(c(C(F)(F)F)c1)CN(c1cccc(C3([C@@H](F)c4nncn4C)COC3)c1)C2=O [Compound 155, 2-(3-(3-((R)-fluoro(4-methyl-4H-1,2,4-triazol-3-yl)methyl)oxetan-3-yl)phenyl)-6-(((R)-2-(methoxymethyl)pyrrolidin-1-yl)methyl)-4-(trifluoromethyl)isoindolin-1-one] |
